Results from the supplement of paper PMC5579334.

How the values were obtained:
[1] = test system: HSC1; experiment: relative IC50 (inflection point of fitted dose-response curve, CellTox-Green cytotoxicity, 72 h; top asymptote may be below 50%); higher = less potent
Summary of the method: (§1)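 MPNST cell lines and primary human Schwann cells were incubated 72 h at 37 °C in 384-well plates holding five 10-fold compound dilutions. CellTox-Green was added before seeding at a final 1:1000 dilution and reported fluorescence from DNA released by disrupted cells. Signals were scaled to vehicle and positive-control wells, and cultures failing plate quality control were dropped. Drug sensitivity score and relative IC50 come from four-parameter logistic fits, with IC50 censored at the top concentration.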

[2] = test system: HSC2; experiment: as above
Summary of the method: as §1

[3] = test system: S1507-2; experiment: as above
Summary of the method: as §1

[4] = test system: ST8814; experiment: as above
Summary of the method: as §1

[5] = test system: STS26T; experiment: as above
Summary of the method: as §1

[6] = test system: HS-PSS; experiment: relative IC50 (inflection point of fitted dose-response curve, CellTiter-Glo viability, 72 h; top asymptote may be below 50% inhibition); higher = less potent
Summary of the method: (§2)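 MPNST cell lines and primary human Schwann cells (750–1000 cells per well) went into 384-well plates preprinted with each compound at five concentrations in 10-fold steps. Plates were incubated 72 h at 37 °C, 5% CO2. Viability was read as CellTiter-Glo ATP luminescence, scaled between vehicle and positive-control wells, with duplicates averaged where present. Percent inhibition is at the top concentration; drug sensitivity score and relative IC50 (censored at top concentration) come from four-parameter logistic fits.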

[7] = test system: HS-Sch-2; experiment: as above
Summary of the method: as §2

[8] = test system: HSC1; experiment: as above
Summary of the method: as §2

[9] = test system: HSC2; experiment: as above
Summary of the method: as §2

[10] = test system: S1507-2; experiment: as above
Summary of the method: as §2

[11] = test system: S462; experiment: as above
Summary of the method: as §2

[12] = test system: ST8814; experiment: as above
Summary of the method: as §2

[13] = test system: STS26T; experiment: as above
Summary of the method: as §2

[14] = test system: YST-1; experiment: as above
Summary of the method: as §2

| SMILES | relative IC50 [1] | relative IC50 [2] | relative IC50 [3] | relative IC50 [4] | relative IC50 [5] | relative IC50 [6] | relative IC50 [7] | relative IC50 [8] | relative IC50 [9] | relative IC50 [10] | relative IC50 [11] | relative IC50 [12] | relative IC50 [13] | relative IC50 [14] |
| --- | --- | --- | --- | --- | --- | --- | --- | --- | --- | --- | --- | --- | --- | --- |
| Cc1cc(Nc2cc(CN3CCOCC3)c3nc(C)c(Cc4ccc(Cl)cc4F)n3n2)n[nH]1 [Gandotinib] | 1990 nM | 2250 nM | 2400 nM | 2770 nM | 1700 nM | 1000 nM | 1550 nM | 1270 nM | 1090 nM | 1200 nM | 862 nM | 1730 nM | 718 nM | 1170 nM |
| CC[C@@H]1C(=O)N(C)c2cnc(Nc3ccc(C(=O)NC4CCN(C)CC4)cc3OC)nc2N1C1CCCC1 [BI 2536] | 22.3 nM | 21.5 nM | 10.6 nM | 4.57 nM | 2.27 nM | 7.64 nM | 3.28 nM | 27.1 nM | 22.6 nM | 11.9 nM | 4.92 nM | 9.3 nM | 3.49 nM | 3.54 nM |
| C=CCn1c(=O)c2cnc(Nc3ccc(N4CCN(C)CC4)cc3)nc2n1-c1cccc(C(C)(C)O)n1 [MK1775] | 1210 nM | 1510 nM | 196 nM | 375 nM | 167 nM | 547 nM | 84.1 nM | 224 nM | 225 nM | 231 nM | 111 nM | 264 nM | 361 nM | 326 nM |
| O=C1NC(=O)[C@@H](c2cn3c4c(cccc24)CCC3)[C@@H]1c1c[nH]c2ccccc12 [Tivantinib] | 240 nM | 243 nM | 253 nM | 328 nM | 210 nM | 239 nM | 231 nM | 276 nM | 251 nM | 254 nM | 340 nM | 330 nM | 239 nM | 190 nM |
| CC(=O)Nc1ccc(C(=O)Nc2ccccc2N)cc1 [Tacedinaline] | > 1000 nM | > 1000 nM | > 1000 nM | > 1000 nM | > 1000 nM | > 1000 nM | > 1000 nM | > 1000 nM | > 1000 nM | > 1000 nM | > 1000 nM | > 1000 nM | > 1000 nM | > 1000 nM |
| CC[C@]1(O)C[C@H]2CN(CCc3c([nH]c4ccccc34)[C@@](C(=O)OC)(c3cc4c(cc3OC)N(C=O)[C@H]3[C@@](O)(C(=O)OC)[C@H](OC(C)=O)[C@]5(CC)C=CCN6CC[C@]43[C@@H]65)C2)C1 [Vincristine] | 62.2 nM | 44.7 nM | 8.92 nM | 6.85 nM | 1.13 nM | 9.51 nM | 2.19 nM | 10.3 nM | 11 nM | 6.45 nM | 3.42 nM | 6.95 nM | 1.76 nM | 2.18 nM |
| NC(=O)Nc1cc(-c2cccc(F)c2)sc1C(=O)N[C@H]1CCCNC1 [AZD7762] | 313 nM | 266 nM | 57.1 nM | 243 nM | 135 nM | 207 nM | 67 nM | 161 nM | 310 nM | 63.1 nM | 54.7 nM | 149 nM | 139 nM | 313 nM |
